Common to all, as to format: functional, cell-based
In one test the test system is MG-63. In words: Cytotoxicity against human MG63 cells by MTT colorimetric method. For orientation: Tetrazolium assays rely on reduction of a dye to a coloured formazan, in cell work by metabolically active cells.
In a further test the test system is A549. Description: Cytotoxicity against human A549 cells by MTT colorimetric method.
The test system of a further test is LoVo. In words: Cytotoxicity against human LoVo cells by MTT colorimetric method.

Turning to `COc1cc(OC)c2c(c1)C(=O)[C@@H]1C[C@@H](O)C[C@@]2(O)[C@@H]1CO`, the IC50 with MG-63, in the test on A549 and with LoVo was over 97.4 µM each time.

In the case of `COc1cccc2c1C(=O)c1c(O)c3c(c(O)c1C2=O)C[C@@](O)(C(=O)CO)C[C@@H]3O[C@H]1C[C@H](N)[C@H](O)[C@H](C)O1` [DOXORUBICIN], the 50% inhibitory concentration (IC50) in the test with MG-63 and in the test with LoVo was 2.7 µM throughout.

By IC50 is commonly meant the concentration that gives 50% inhibition. Read a low IC50 as greater potency.

These data come from ChEMBL document CHEMBL2150860, “Herbarone, a rearranged heptaketide derivative from the sea hare associated fungus Torula herbarum” (J Nat Prod, 2012).
